Source: PubChem BioAssay AID292 (DTP/NCI, 2004)
Where “and” joins values, the source holds several entries; their conditions need not be identical. Equal entries are not always repeated. Toxic doses and inconclusive results are not listed.

System: B6C3F1 mice, ip Sarcoma M5076, median survival T/C
Assay: NCI In Vivo Anticancer Drug Screen. Data for tumor model Sarcoma M5076 (intraperitoneal) in B6C3F1 mice
Conditions: endpoint: median survival time, higher = longer survival
Procedure, shortened: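 Survival measured in treated (T) and vehicle control (C) mice with transplantable tumour; result given as T divided by C.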

[1] = dose: 12.5 mg/kg/injection, schedule: Q04DX004 (ip), vehicle: saline with Tween-80
[2] = dose: 25.0 mg/kg/injection, schedule: Q04DX004 (ip), vehicle: saline with Tween-80
[3] = dose: 50.0 mg/kg/injection, schedule: Q04DX004 (ip), vehicle: saline with Tween-80
[4] = dose: 50.0 mg/kg/injection, schedule: Q04DX004 (ip), vehicle: Klucel (hydroxypropylcellulose) (HPC)
[5] = dose: 100.0 mg/kg/injection, schedule: Q04DX004 (ip), vehicle: Klucel (hydroxypropylcellulose) (HPC)
[6] = dose: 200.0 mg/kg/injection, schedule: Q04DX004 (ip), vehicle: Klucel (hydroxypropylcellulose) (HPC)
[7] = dose: 37.5 mg/kg/injection, schedule: Q04DX004 (ip), vehicle: saline with Tween-80
[8] = dose: 75.0 mg/kg/injection, schedule: Q04DX004 (ip), vehicle: saline with Tween-80
[9] = dose: 25.0 mg/kg/injection, schedule: Q04DX004 (ip), vehicle: saline
[10] = dose: 50.0 mg/kg/injection, schedule: Q04DX004 (ip), vehicle: saline
[11] = dose: 800.0 mg/kg/injection, schedule: Q04DX004 (ip), vehicle: Klucel (hydroxypropylcellulose) (HPC)
[12] = dose: 25.0 mg/kg/injection, schedule: Q04DX004 (ip), vehicle: Klucel (hydroxypropylcellulose) (HPC)
[13] = dose: 400.0 mg/kg/injection, schedule: Q04DX004 (ip), vehicle: Klucel (hydroxypropylcellulose) (HPC)

CC(O)C1(O)C(O)CC(OC2c3cc4c(c(O)c3[C@@H]3C[C@@]2(C)OC32C=c3cc[nH]c3=N2)C(=O)c2cccc(O)c2C4=O)OC1C (stereo partly specified)
T/C [1]: 104 % of control | T/C [2]: 104 % of control | T/C [3]: 92 % of control

COc1cc2cc3c(c(O)c2c(O)c1/C=C/C(C)C)C(=O)CC(C)(OC(C)=O)C3 (stereo unspecified)
T/C (dose: 0.62 mg/kg/injection, schedule: Q01DX009 (ip), vehicle: Klucel (hydroxypropylcellulose) (HPC)): 117 % of control | T/C (dose: 0.63 mg/kg/injection, schedule: Q01DX009 (ip), vehicle: Klucel (hydroxypropylcellulose) (HPC)): 98 % of control and 104 % of control and 106 % of control | T/C (dose: 0.63 mg/kg/injection, schedule: Q04DX004 (ip), vehicle: Klucel (hydroxypropylcellulose) (HPC)): 113 % of control | T/C (dose: 1.25 mg/kg/injection, schedule: Q04DX004 (ip), vehicle: Klucel (hydroxypropylcellulose) (HPC)): 121 % of control | T/C (dose: 2.5 mg/kg/injection, schedule: Q04DX004 (ip), vehicle: Klucel (hydroxypropylcellulose) (HPC)): 123 % of control | T/C (dose: 3.6 mg/kg/injection, schedule: Q04DX004 (ip), vehicle: Klucel (hydroxypropylcellulose) (HPC)): 106 % of control | T/C (dose: 6.0 mg/kg/injection, schedule: Q04DX004 (ip), vehicle: Klucel (hydroxypropylcellulose) (HPC)): 110 % of control | T/C (dose: 10.0 mg/kg/injection, schedule: Q04DX004 (ip), vehicle: Klucel (hydroxypropylcellulose) (HPC)): 118 % of control | T/C (dose: 16.67 mg/kg/injection, schedule: Q04DX004 (ip), vehicle: Klucel (hydroxypropylcellulose) (HPC)): 117 % of control

COc1cccc2c1C(=O)C1=C(C2=O)c2c(O)cc(CO)cc2C(O)C1O (stereo unspecified)
T/C (dose: 6.25 mg/kg/injection, schedule: Q04DX004 (ip), vehicle: saline with Tween-80): 100 % of control | T/C [1]: 106 % of control | T/C [2]: 92 % of control | T/C [3]: 101 % of control

CC(=O)C(Cl)C(=O)c1c(C)[nH]n(-c2ccccc2)c1=O (stereo unspecified)
T/C [4]: 99 % of control | T/C [5]: 113 % of control | T/C [6]: 92 % of control

CC1=CC(C)(C)Nc2ccc(OC(=O)/C=C(C)/C=C/C=C(C)/C=C/C3=C(C)CCCC3(C)C)cc21
T/C [7]: 96 % of control | T/C [8]: 98 % of control | T/C (dose: 150.0 mg/kg/injection, schedule: Q04DX004 (ip), vehicle: saline with Tween-80): 98 % of control | T/C (dose: 300.0 mg/kg/injection, schedule: Q04DX004 (ip), vehicle: saline with Tween-80): 89 % of control | T/C (dose: 600.0 mg/kg/injection, schedule: Q04DX004 (ip), vehicle: saline with Tween-80): 89 % of control

CCOC(=O)Nc1cc2c(c(N)n1)N=C(c1ccc3ccccc3c1)CN2
T/C (dose: 3.75 mg/kg/injection, schedule: Q04DX004 (ip), vehicle: saline with Tween-80): 110 % of control | T/C (dose: 7.5 mg/kg/injection, schedule: Q04DX004 (ip), vehicle: saline with Tween-80): 108 % of control | T/C (dose: 15.0 mg/kg/injection, schedule: Q04DX004 (ip), vehicle: saline with Tween-80): 120 % of control | T/C (dose: 30.0 mg/kg/injection, schedule: Q04DX004 (ip), vehicle: saline with Tween-80): 111 % of control

CC[C@@H](C)[C@@H]1NC(=O)C(NC(=O)C(CC(C)C)N(C)C(=O)C2CCCN2C(=O)C(C)O)C(C)OC(=O)C(Cc2ccc(OC)cc2)N(C)C(=O)C2CCCN2C(=O)C(CC(C)C)NC(=O)C(C)C(=O)C(C(C)C)OC(=O)C[C@H]1O (stereo partly specified)
T/C (dose: 0.13 mg/kg/injection, schedule: Q04DX004 (ip), vehicle: distilled water + alcohol): 120 % of control | T/C (dose: 0.36 mg/kg/injection, schedule: Q04DX004 (ip), vehicle: distilled water + alcohol): 171 % of control | T/C (dose: 0.6 mg/kg/injection, schedule: Q04DX004 (ip), vehicle: distilled water + alcohol): 209 % of control | T/C (dose: 45.0 micrograms/kg/injection, schedule: Q04DX004 (ip), vehicle: distilled water + alcohol): 117 % of control | T/C (dose: 90.0 micrograms/kg/injection, schedule: Q04DX004 (ip), vehicle: distilled water + alcohol): 115 % of control

CN=NN(C)C(=O)NC
T/C [9]: 158 % of control | T/C (dose: 30.0 mg/kg/injection, schedule: Q04DX004 (ip), vehicle: saline): 160 % of control | T/C [10]: 151 % of control and 152 % of control and 177 % of control | T/C (dose: 83.0 mg/kg/injection, schedule: Q04DX004 (ip), vehicle: saline): 160 % of control and 162 % of control

Cc1cc2c(=O)cc(-c3ccccc3)oc2c(C(=O)O)c1C
T/C (dose: 31.25 mg/kg/injection, schedule: Q04DX004 (ip), vehicle: saline with Tween-80): 98 % of control | T/C (dose: 62.5 mg/kg/injection, schedule: Q04DX004 (ip), vehicle: saline with Tween-80): 93 % of control | T/C (dose: 125.0 mg/kg/injection, schedule: Q04DX004 (ip), vehicle: saline with Tween-80): 113 % of control

Cc1c(-c2ccc(C3CCCCC3)cc2)nc2ccc(F)cc2c1C(=O)O
T/C [4]: 114 % of control and 121 % of control | T/C [5]: 118 % of control and 122 % of control | T/C [11]: 152 % of control

Nc1ccccc1N
T/C (dose: 12.0 mg/kg/injection, schedule: Q04DX004 (ip), vehicle: Klucel (hydroxypropylcellulose) (HPC)): 99 % of control | T/C [12]: 98 % of control | T/C [4]: 110 % of control | T/C [5]: 98 % of control | T/C [6]: 103 % of control

O=C(O)c1cccc2c1ccc1ccccc12
T/C (dose: 4.0 mg/kg/injection, schedule: Q04DX004 (ip), vehicle: saline with Tween-80): 109 % of control | T/C (dose: 8.0 mg/kg/injection, schedule: Q04DX004 (ip), vehicle: saline with Tween-80): 102 % of control | T/C (dose: 8.0 mg/kg/injection, schedule: Q04DX005 (ip), vehicle: saline): 98 % of control | T/C (dose: 16.0 mg/kg/injection, schedule: Q04DX004 (ip), vehicle: saline with Tween-80): 107 % of control | T/C (dose: 16.0 mg/kg/injection, schedule: Q04DX005 (ip), vehicle: saline): 93 % of control | T/C (dose: 32.0 mg/kg/injection, schedule: Q04DX004 (ip), vehicle: saline with Tween-80): 105 % of control | T/C (dose: 32.0 mg/kg/injection, schedule: Q04DX005 (ip), vehicle: saline): 96 % of control | T/C (dose: 64.0 mg/kg/injection, schedule: Q04DX004 (ip), vehicle: saline with Tween-80): 103 % of control | T/C (dose: 64.0 mg/kg/injection, schedule: Q04DX005 (ip), vehicle: saline): 94 % of control | T/C (dose: 128.0 mg/kg/injection, schedule: Q04DX005 (ip), vehicle: saline): 96 % of control

CCC(=O)N=c1sc(SCc2ccccc2)nn1C(=O)SC (tested in a mixture with another compound)
T/C [12]: 101 % of control | T/C [4]: 96 % of control | T/C [5]: 101 % of control | T/C [6]: 89 % of control | T/C [13]: 86 % of control

c1ccc([Te][Te]c2ccccc2)cc1
T/C (dose: 18.75 mg/kg/injection, schedule: Q04DX004 (ip), vehicle: saline with Tween-80): 106 % of control | T/C [7]: 100 % of control | T/C [8]: 98 % of control

N#CC1C(=O)NC(=O)C(C#N)C1c1c2ccccc2cc2ccccc12 (stereo unspecified)
T/C [4]: 96 % of control | T/C [5]: 103 % of control | T/C [6]: 94 % of control | T/C [13]: 106 % of control | T/C [11]: 102 % of control

O=CC(S)CO (stereo unspecified)
T/C (dose: 25.0 mg/kg/injection, schedule: Q04DX004 (ip), vehicle: suspension in saline): 108 % of control | T/C (dose: 50.0 mg/kg/injection, schedule: Q04DX004 (ip), vehicle: suspension in saline): 104 % of control | T/C (dose: 200.0 mg/kg/injection, schedule: Q04DX004 (ip), vehicle: suspension in saline): 118 % of control | T/C (dose: 400.0 mg/kg/injection, schedule: Q04DX004 (ip), vehicle: suspension in saline): 113 % of control

Oc1c(Cl)cc(Cl)cc1C=NCCSc1ccc(Cl)cc1
T/C [4]: 97 % of control and 121 % of control | T/C [5]: 98 % of control and 117 % of control | T/C [6]: 97 % of control and 110 % of control | T/C [13]: 94 % of control and 112 % of control | T/C [11]: 100 % of control

Cc1ccc(C2=CSC3=NCCN23)cc1Cl
T/C (dose: 3.0 mg/kg/injection, schedule: Q04DX004 (ip), vehicle: saline): 103 % of control | T/C (dose: 6.0 mg/kg/injection, schedule: Q04DX004 (ip), vehicle: saline): 107 % of control | T/C (dose: 12.0 mg/kg/injection, schedule: Q04DX004 (ip), vehicle: saline): 104 % of control | T/C (dose: 24.0 mg/kg/injection, schedule: Q04DX004 (ip), vehicle: saline): 100 % of control | T/C [9]: 104 % of control | T/C [10]: 96 % of control
